± gives the expanded uncertainty stated by the source.
Details: for surface tension liquid-gas: Drop volume; for kinematic viscosity / speed of sound / mass density: Liquid; for kinematic viscosity: Capillary tube (Ostwald / Ubbelohde) method; for speed of sound: Frequency=3 MHz, Sing-around technique in a fixed-path interferometer; for mass density: Vibrating tube method

CC(=O)c1cccs1 [2-acetylthiophene]
Details | surface tension liquid-gas [mN/m]
278.15 K | 45.41 ± 0.5
280.65 K | 45.14 ± 0.5
283.15 K | 44.83 ± 0.49
285.65 K | 44.58 ± 0.49
288.15 K | 44.31 ± 0.49
290.65 K | 44.01 ± 0.48
293.15 K | 43.73 ± 0.48
295.65 K | 43.46 ± 0.48
298.15 K | 43.16 ± 0.47

Details | kinematic viscosity [m2/s] | mass density [kg/m3] | speed of sound [m/s]
278.15 K, 101 kPa | 3.7e-06 ± 4.2e-08 | 1185.43 ± 0.17 | 1538.3 ± 0.94
280.65 K, 101 kPa | 3.44e-06 ± 3.9e-08 | 1183.04 ± 0.17 | 1529.7 ± 0.94
283.15 K, 100 kPa | – | 1180.61 ± 0.24 | –
283.15 K, 101 kPa | 3.21e-06 ± 3.7e-08 | 1180.64 ± 0.17 | 1521.2 ± 0.93
283.15 K, 2000 kPa | – | 1181.78 ± 0.25 | –
283.15 K, 5000 kPa | – | 1183.44 ± 0.26 | –
283.15 K, 7000 kPa | – | 1184.54 ± 0.27 | –
283.15 K, 10000 kPa | – | 1186.17 ± 0.28 | –
283.15 K, 15000 kPa | – | 1188.81 ± 0.31 | –
283.15 K, 20000 kPa | – | 1191.4 ± 0.34 | –
283.15 K, 25000 kPa | – | 1193.92 ± 0.37 | –
283.15 K, 30000 kPa | – | 1196.37 ± 0.4 | –
283.15 K, 35000 kPa | – | 1198.77 ± 0.43 | –
283.15 K, 40000 kPa | – | 1201.11 ± 0.47 | –
283.15 K, 45000 kPa | – | 1203.39 ± 0.51 | –
285.65 K, 101 kPa | 3e-06 ± 3.4e-08 | 1178.25 ± 0.17 | 1512.7 ± 0.93
288.15 K, 100 kPa | – | 1175.97 ± 0.24 | –
288.15 K, 101 kPa | 2.81e-06 ± 3.2e-08 | 1175.86 ± 0.16 | 1503.9 ± 0.93
288.15 K, 2000 kPa | – | 1177.04 ± 0.25 | –
288.15 K, 5000 kPa | – | 1178.73 ± 0.26 | –
288.15 K, 7000 kPa | – | 1179.85 ± 0.27 | –
288.15 K, 10000 kPa | – | 1181.52 ± 0.28 | –
288.15 K, 15000 kPa | – | 1184.21 ± 0.31 | –
288.15 K, 20000 kPa | – | 1186.85 ± 0.33 | –
288.15 K, 25000 kPa | – | 1189.43 ± 0.36 | –
288.15 K, 30000 kPa | – | 1191.93 ± 0.4 | –
288.15 K, 35000 kPa | – | 1194.37 ± 0.43 | –
288.15 K, 40000 kPa | – | 1196.76 ± 0.46 | –
288.15 K, 45000 kPa | – | 1199.09 ± 0.5 | –
290.65 K, 101 kPa | 2.64e-06 ± 3e-08 | 1173.47 ± 0.16 | 1495 ± 0.93
293.15 K, 100 kPa | – | 1171 ± 0.24 | –
293.15 K, 101 kPa | 2.51e-06 ± 2.9e-08 | 1171.07 ± 0.16 | 1486.3 ± 0.93
293.15 K, 2000 kPa | – | 1172.28 ± 0.25 | –
293.15 K, 5000 kPa | – | 1174.02 ± 0.26 | –
293.15 K, 7000 kPa | – | 1175.16 ± 0.27 | –
293.15 K, 10000 kPa | – | 1176.85 ± 0.28 | –
293.15 K, 15000 kPa | – | 1179.61 ± 0.3 | –
293.15 K, 20000 kPa | – | 1182.3 ± 0.33 | –
293.15 K, 25000 kPa | – | 1184.93 ± 0.36 | –
293.15 K, 30000 kPa | – | 1187.48 ± 0.39 | –
293.15 K, 35000 kPa | – | 1189.98 ± 0.42 | –
293.15 K, 40000 kPa | – | 1192.41 ± 0.46 | –
293.15 K, 45000 kPa | – | 1194.78 ± 0.49 | –
293.15 K, 50000 kPa | – | 1197.1 ± 0.53 | –
293.15 K, 55000 kPa | – | 1199.35 ± 0.58 | –
293.15 K, 60000 kPa | – | 1201.56 ± 0.62 | –
293.15 K, 65000 kPa | – | 1203.71 ± 0.67 | –
295.65 K, 101 kPa | 2.35e-06 ± 2.7e-08 | 1168.68 ± 0.16 | 1477.8 ± 0.92
298.15 K, 100 kPa | – | 1166.24 ± 0.24 | –
298.15 K, 101 kPa | 2.22e-06 ± 2.5e-08 | 1166.29 ± 0.16 | 1469 ± 0.92

From the NIST ThermoML archive (doi:10.1016/j.fluid.2016.10.026)
